# Reference: patent US20130197073A1, “HYPOCHOLESTEROLEMIC, ANTI-INFLAMMATORY AND ANTIEPILEPTIC NEUROPROTECTIVE COMPOUND” (NEURON BIOPHARMA, S.A., priority 2010, published 2013)
# Experiments:
# [1] = system: human neuroblastoma SK-N-MC cells; test: Protection against neuronal death induced by okadaic acid (inhibition of protein phosphatase-1), WST-1; assay type: cell-based; settings: NST0060 at 10 μM; 20 nM OA, 22 hours; significant with 4 and 10 μM
# Experimental: (§1) The assay was performed on human neuroblastoma SK-N-MC cells in culture, maintained as described in section 2.1.
# The inhibition caused by compound NST0060 with respect to cell death caused by treatment with okadaic acid (OA) which inhibits the activity of protein phosphatase-1 (PP1) was analyzed. OA is one of the most widely used drugs for studying the phosphorylation mechanism of the tau protein, involved in the pathogenesis and progression of AD. Inhibition of PP1 causes cytoskeleton alterations and mitochondrial damage. These cells, not exceeding 15 passages, were seeded on 96-well plates treated for adherent cells with a cell concentration of 5×10^4 cells/well; 3 wells of the plate were seeded for each assay condition.
# After 24 hours of cell incubation (at 37° C. and 5% CO2), the cell treatments were performed with 100 μl of total volume for the following conditions: • Control: culture medium (medium) • Okadaic acid (OA): medium plus 20 nM OA, causing death of 50% of the cells. • OA plus NST0060: medium plus OA (20 nM) plus NST0060 at 1, 4, 10, 40 or 100 μM.
# (§2) The cells were incubated (at 37° C. and 5% CO2) with these treatments for 22 hours, after which time WST-1 reagent (Roche) was added. The WST-1 test is based on the measurement of metabolic activity (method described in section 2.1).
# in vitro = settings: PAMPA, pH 7.4
# Excerpt: To that end, the BBB was mimicked in an in vitro system that allowed evaluating the compound without using cells, and where the so-called PAMPA (Parallel Artificial Membrane Permeation Assay) was used, using a sandwich system considering the crossing of compounds by means of passive diffusion.
# A mixture of marketed lipids derived from pig brain with a phospholipid composition very similar to that which forms the barrier and known as PBL (Porcine Polar Brain Lipid) was used to mimic the blood-brain barrier. This compound was stored at −20° C. dissolved in dodecane at 100 μg/ml in glass vials.
# To that end, a 1/100 dilution of the compounds was performed, being the DMSO content in all cases 1%.
# Five microliters of PBL at 20 μg/ml prepared from the frozen stock at 100 μg/mL were added in a 96-well filter plate, with a PVDF membrane and a pore size of 45 μm (MAIPN4550, Millipore). After 2 minutes, 300 μl of the phosphate buffer used to dilute the compounds were added. […] After that time, 100 μl from the wells of the donor plates and acceptor plates were transferred to a special 96-well plate for UV reading. […] The percentage of barrier crossing as well as the effective permeability (Pe) were calculated from the spectrophotometric data. […]
# [Drug]acceptor=Absorbance of the acceptor well
# [Drug]equilibrium=Absorbance of the mean of the basal wells/2 […]
# [2] = target: T1, 3-hydroxy-3-methylglutaryl coenzyme A reductase (HMGR) (Homo sapiens, UniProt P04035); test: Inhibition of HMGR enzyme activity in vitro, NADPH absorbance at 340 nm; assay type: biochemical; settings: active forms (activated with 0.1 N NaOH); five independent assays in duplicate
# T1 sequence (P04035 340-888 limits assumed): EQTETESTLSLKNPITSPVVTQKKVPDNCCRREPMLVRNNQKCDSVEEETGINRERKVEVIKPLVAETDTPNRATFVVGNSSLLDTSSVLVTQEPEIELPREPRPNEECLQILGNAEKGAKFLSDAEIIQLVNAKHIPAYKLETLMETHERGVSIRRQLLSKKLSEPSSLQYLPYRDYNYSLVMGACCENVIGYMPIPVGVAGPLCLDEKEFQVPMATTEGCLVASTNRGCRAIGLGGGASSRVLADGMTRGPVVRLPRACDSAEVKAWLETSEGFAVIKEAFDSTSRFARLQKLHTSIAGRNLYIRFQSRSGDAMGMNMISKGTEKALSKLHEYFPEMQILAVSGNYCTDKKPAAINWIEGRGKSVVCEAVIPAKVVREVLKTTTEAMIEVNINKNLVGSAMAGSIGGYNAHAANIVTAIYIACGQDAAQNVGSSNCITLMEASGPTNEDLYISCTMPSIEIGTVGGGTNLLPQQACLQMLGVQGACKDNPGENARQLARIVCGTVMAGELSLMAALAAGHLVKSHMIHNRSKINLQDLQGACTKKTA
# Experimental: The assay was carried out in a 96-well plate, with a total reaction volume of 200 μl.
# [3] = system: zebrafish (Danio rerio, AB strain) embryos; test: Zebrafish embryo acute toxicity, percentage of healthy larvae; settings: mean±SD
# [4] = system: human neuroblastoma SK-N-MC cells; test: Protection against neuronal death induced by tunicamycin (endoplasmic reticulum stress), WST-1; assay type: cell-based; settings: NST0060 at 4 μM; 24 μM tunicamycin, 22 hours; significant from 1 to 40 μM
# Experimental: as §1
# The inhibition caused by compound NST0060 with respect to cell death caused by treatment with tunicamycin generating endoplasmic reticulum stress was analyzed. Tunicamycin is an inhibitor of protein N-glycosylation, causing abnormal protein folding in the endoplasmic reticulum, therefore said proteins are accumulated and cause stress, resulting in cell death. These cells, not exceeding 15 passages, were seeded on 96-well plates treated for adherent cells with a cell concentration of 5×10^4 cells/well; 3 wells of the plate were seeded for each assay condition.
# After 24 hours of cell incubation (at 37° C. and 5% CO2), the cell treatments were performed with 100 μl of total volume for the following conditions: • Control: culture medium (medium) • Tunicamycin (TM): medium plus 24 μM tunicamycin, causing death of 50% of the cells. • TM plus NST0060: medium plus TM (24 μM) plus NST0060 at 1, 4, 10, 40 or 100 μM
# as §2
# IL-1β = test: LPS model of systemic shock in mice, plasma IL-1β; assay type: in vivo; settings: two i.p. doses of 50 mg/kg; 2 hours post-LPS
# Experimental: To that end an additional assay was carried out in which all the animals included were 12-week old male C57BL6 mice. The experiments were carried out strictly complying with the standard entitled Guidance on the Operation of Animals (Scientific Procedures, Act. 1986). The animals were subjected to their respective quarantine period and were treated with maximum precaution to minimize possible contaminations during treatments and handling.
# The mice were split up into three experimental groups: control group (n=8); control+LPS group (n=16); NST0060+LPS group (n=16). The mice were i.p. administered two doses of 50 mg/kg of NST0060 (in its lactone form) spaced out 12 hours from one another. 0.5% methyl cellulose in physiological saline, which was administered to the mice in the control groups with the same administration regimen, was used as a vehicle. Peripheral systemic inflammation was induced one hour after the last treatment by means of a single i.p. injection of LPS at 8 mg/kg. Half the mice in which systemic shock was induced (8 animals from the control+LPS group and 8 animals from the NST0060+LPS group) were sacrificed 2 hours after the inoculation of the LPS. Blood was taken and plasma was obtained, and both were frozen. […] The concentration of the inflammatory cytokines TNFα and IL-1β was evaluated in the plasma obtained by means of ELISA.
structure (smiles),measurement,setting,value
"CCCC(CCC)C(=O)O[C@H]1C[C@@H](C)C=C2C=C[C@H](C)[C@H](CC[C@@H]3C[C@@H](O)CC(=O)O3)[C@H]21 [NST0060, 2-propylpentanoic acid (1S,3R,7S,8S,8aR)-1,2,3,7,8,8a-hexahydro-3,7-dimethyl-8-[2-[(2R,4R)-tetrahydro-4-hydroxy-6-oxo-2H-pyran-2-yl]ethyl]-1-naphthalenyl ester]",protection against cell death caused by OA,[1],83%
same,"Papp at 18 h, 100 μM",in vitro,8.8 ± 1.2 ×10⁻⁶ cm/s
same,IC50,[2],126 ± 34.6 nM
same,percentage of healthy larvae,[3]; dose of 1 mg/Kg,100±0.0%
same,percentage of healthy larvae,[3]; dose of 3 mg/Kg,86.7±6.2%
same,protection against cell death caused by TM,[4],42%
same,cytokine IL-1β plasma levels,IL-1β,statistically significant decrease in cytokine IL-18 plasma levels
